In ChEMBL document CHEMBL5705899 (Biochem J, 2014):
The source made the active and inactive calls. No cut-off for these calls is given here.

Tests used:
[1] = molecular target: Macrophage colony-stimulating factor 1 receptor (Homo sapiens) (UniProt P07333); assay: Inhibition of human CSF1R at 1 uM using polyEY as substrate in presence of 33P-ATP by ProQinase assay
[2] = molecular target: Tyrosine-protein kinase Fyn (Homo sapiens) (UniProt P06241); assay: Inhibition of human FYN at 1 uM using polyEY as substrate in presence of 33P-ATP by ProQinase assay
[3] = molecular target: Dual specificity mitogen-activated protein kinase kinase 6 (Homo sapiens) (UniProt P52564); assay: Inhibition of recombinant human N-terminal MBP-tagged MKK6 (2 to 334 residues) expressed in Escherichia coli assessed as remaining activity at 1 uM using SAPK2a as substrate incubated for 30 mins in presence of [gamma-33P]ATP by filter binding method relative to control
Sequence of Dual specificity mitogen-activated protein kinase kinase 6 (Homo sapiens) (P52564 whole entry, the tested form may be a part): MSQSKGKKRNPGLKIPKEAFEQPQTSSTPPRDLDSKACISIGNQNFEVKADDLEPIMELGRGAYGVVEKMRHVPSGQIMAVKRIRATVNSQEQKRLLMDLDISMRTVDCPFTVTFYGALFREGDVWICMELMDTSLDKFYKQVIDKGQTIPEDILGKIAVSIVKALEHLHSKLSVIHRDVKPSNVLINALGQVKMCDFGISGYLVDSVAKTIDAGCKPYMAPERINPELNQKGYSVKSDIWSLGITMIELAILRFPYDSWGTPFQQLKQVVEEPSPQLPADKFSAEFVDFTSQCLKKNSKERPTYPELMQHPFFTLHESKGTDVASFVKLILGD

[4] = molecular target: Serine/threonine-protein kinase D1 (Homo sapiens) (UniProt Q15139); assay: Inhibition of human PKCmu at 1 uM using RBER-CHKtide as substrate in presence of 33P-ATP by ProQinase assay
Sequence of Serine/threonine-protein kinase D1 (Homo sapiens) (Q15139 whole entry, the tested form may be a part): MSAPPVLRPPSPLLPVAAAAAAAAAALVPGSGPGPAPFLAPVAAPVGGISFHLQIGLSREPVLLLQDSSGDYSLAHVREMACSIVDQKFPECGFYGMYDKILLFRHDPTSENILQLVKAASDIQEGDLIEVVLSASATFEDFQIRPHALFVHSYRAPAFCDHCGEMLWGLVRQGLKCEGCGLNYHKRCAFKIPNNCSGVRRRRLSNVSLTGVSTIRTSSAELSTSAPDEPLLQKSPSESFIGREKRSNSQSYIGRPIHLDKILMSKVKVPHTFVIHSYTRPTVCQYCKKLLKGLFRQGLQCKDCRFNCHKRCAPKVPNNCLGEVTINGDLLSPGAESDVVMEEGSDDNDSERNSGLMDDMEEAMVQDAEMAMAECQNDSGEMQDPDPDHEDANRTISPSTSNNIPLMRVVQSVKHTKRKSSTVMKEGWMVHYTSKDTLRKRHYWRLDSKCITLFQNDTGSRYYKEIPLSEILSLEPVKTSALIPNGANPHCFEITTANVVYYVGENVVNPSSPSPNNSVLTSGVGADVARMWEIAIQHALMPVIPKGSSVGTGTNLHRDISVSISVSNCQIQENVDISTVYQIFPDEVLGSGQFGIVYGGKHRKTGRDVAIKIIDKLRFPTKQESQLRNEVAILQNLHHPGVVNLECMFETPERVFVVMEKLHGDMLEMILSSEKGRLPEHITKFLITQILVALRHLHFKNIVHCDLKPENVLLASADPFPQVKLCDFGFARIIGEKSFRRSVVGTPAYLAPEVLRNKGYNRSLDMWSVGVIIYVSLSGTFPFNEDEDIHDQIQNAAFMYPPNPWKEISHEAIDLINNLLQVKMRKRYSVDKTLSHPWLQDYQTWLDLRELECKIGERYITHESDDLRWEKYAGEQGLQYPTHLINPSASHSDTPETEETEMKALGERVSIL

[5] = molecular target: Dual specificity tyrosine-phosphorylation-regulated kinase 2 (Homo sapiens) (UniProt Q92630); assay: Inhibition of recombinant human N-terminal GST-tagged DYRK2 (3 to 528 residues) expressed in Escherichia coli assessed as remaining activity at 1 uM using KKISGRLSPIMTEQ as substrate incubated for 30 mins in presence of [gamma-33P]ATP by filter binding method relative to control
Sequence of Dual specificity tyrosine-phosphorylation-regulated kinase 2 (Homo sapiens) (Q92630 whole entry, the tested form may be a part): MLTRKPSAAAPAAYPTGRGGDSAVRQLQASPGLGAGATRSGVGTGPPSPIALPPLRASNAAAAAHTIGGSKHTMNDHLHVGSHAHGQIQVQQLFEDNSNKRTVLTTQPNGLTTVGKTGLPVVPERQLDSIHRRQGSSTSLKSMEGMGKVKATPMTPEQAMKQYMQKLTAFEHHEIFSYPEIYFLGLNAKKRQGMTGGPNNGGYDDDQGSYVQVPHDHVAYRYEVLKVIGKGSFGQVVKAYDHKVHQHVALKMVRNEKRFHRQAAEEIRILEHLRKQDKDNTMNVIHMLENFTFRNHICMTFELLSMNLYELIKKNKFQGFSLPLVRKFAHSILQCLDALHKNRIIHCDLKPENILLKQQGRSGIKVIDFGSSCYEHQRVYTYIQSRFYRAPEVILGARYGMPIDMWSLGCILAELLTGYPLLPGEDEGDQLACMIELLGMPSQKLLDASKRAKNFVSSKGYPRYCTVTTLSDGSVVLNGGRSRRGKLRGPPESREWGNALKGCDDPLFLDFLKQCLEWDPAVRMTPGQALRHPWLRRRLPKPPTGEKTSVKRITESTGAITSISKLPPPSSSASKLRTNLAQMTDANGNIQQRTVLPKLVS

[6] = molecular target: Protein kinase C eta type (Homo sapiens) (UniProt P24723); assay: Inhibition of human PKCeta at 1 uM using histon H2B as substrate in presence of 33P-ATP by ProQinase assay
Sequence of Protein kinase C eta type (Homo sapiens) (P24723 whole entry, the tested form may be a part): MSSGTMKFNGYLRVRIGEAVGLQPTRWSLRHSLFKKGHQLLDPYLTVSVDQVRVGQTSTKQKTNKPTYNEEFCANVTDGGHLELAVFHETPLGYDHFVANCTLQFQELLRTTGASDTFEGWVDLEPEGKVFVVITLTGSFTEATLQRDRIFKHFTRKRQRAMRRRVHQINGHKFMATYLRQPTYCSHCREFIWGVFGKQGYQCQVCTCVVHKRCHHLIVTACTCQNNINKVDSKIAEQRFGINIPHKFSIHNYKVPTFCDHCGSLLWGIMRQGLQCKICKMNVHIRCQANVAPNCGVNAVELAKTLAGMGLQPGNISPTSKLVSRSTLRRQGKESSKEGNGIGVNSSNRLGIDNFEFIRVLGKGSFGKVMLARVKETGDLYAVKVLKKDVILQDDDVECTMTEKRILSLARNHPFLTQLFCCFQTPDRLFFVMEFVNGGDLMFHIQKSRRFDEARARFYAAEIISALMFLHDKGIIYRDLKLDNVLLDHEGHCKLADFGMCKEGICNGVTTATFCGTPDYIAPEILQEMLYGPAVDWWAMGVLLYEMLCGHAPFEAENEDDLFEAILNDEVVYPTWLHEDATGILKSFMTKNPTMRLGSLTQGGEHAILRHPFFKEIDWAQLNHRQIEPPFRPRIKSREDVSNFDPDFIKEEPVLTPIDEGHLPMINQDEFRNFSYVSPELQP

[7] = molecular target: Vascular endothelial growth factor receptor 1 (Homo sapiens) (UniProt P17948); assay: Inhibition of recombinant human N-terminal GST-tagged VEGFR1 (784 to 1338 residues) expressed in baculovirus infected Sf21 cells assessed as remaining activity at 1 uM using KKKSPGEYVNIEFG as substrate incubated for 30 mins in presence of [gamma-33P]ATP by filter binding method relative to control
[8] = molecular target: Proto-oncogene tyrosine-protein kinase Src (Homo sapiens) (UniProt P12931); assay: Inhibition of recombinant human N-terminal His6-tagged SRC (1 to 536 residues) expressed in baculovirus infected Sf21 cells assessed as remaining activity at 1 uM using KVEKIGEGTYGVVYK as substrate incubated for 30 mins in presence of [gamma-33P]ATP by filter binding method relative to control
[9] = species: Homo sapiens; assay: Inhibition of human CDK1/CycA2 at 1 uM using RBER-CHKtide as substrate in presence of 33P-ATP by ProQinase assay
[10] = molecular target: Serine/threonine-protein kinase PAK 6 (Homo sapiens) (UniProt Q9NQU5); assay: Inhibition of recombinant human N-terminal GST-tagged PAK6 (2 to 681 residues) expressed in Escherichia coli assessed as remaining activity at 1 uM using RRRLSFAEPG as substrate incubated for 30 mins in presence of [gamma-33P]ATP by filter binding method relative to control
[11] = system: PI3-kinase p110-alpha/p85-alpha (Homo sapiens), P27986+P42336 [E545K]; assay: Inhibition of recombinant human N-terminal His6-tagged PI3Kalpha E545K mutant (2 to 1068 residues)/p85A (1 to 724 residues) expressed in baculovirus expression system at 1 uM using diC8 PIP2 as substrate incubated for 80 mins by ADP-Glo assay
[12] = molecular target: TAK1/TAB1 (Homo sapiens) (UniProt Q15750+O43318); assay: Inhibition of human MAP3K7/MAP3K7IP1 at 1 uM using RB-S6P as substrate in presence of 33P-ATP by ProQinase assay; assay type: protein-complex assay
[13] = molecular target: Fibroblast growth factor receptor 3 (Homo sapiens) (UniProt P22607); assay: Inhibition of human FGFR3 at 1 uM using polyEY as substrate in presence of 33P-ATP by ProQinase assay
[14] = molecular target: Mitogen-activated protein kinase 11 (Homo sapiens) (UniProt Q15759); assay: Inhibition of human P38beta at 1 uM using ATF2 as substrate in presence of 33P-ATP by ProQinase assay
Sequence of Mitogen-activated protein kinase 11 (Homo sapiens) (Q15759 whole entry, the tested form may be a part): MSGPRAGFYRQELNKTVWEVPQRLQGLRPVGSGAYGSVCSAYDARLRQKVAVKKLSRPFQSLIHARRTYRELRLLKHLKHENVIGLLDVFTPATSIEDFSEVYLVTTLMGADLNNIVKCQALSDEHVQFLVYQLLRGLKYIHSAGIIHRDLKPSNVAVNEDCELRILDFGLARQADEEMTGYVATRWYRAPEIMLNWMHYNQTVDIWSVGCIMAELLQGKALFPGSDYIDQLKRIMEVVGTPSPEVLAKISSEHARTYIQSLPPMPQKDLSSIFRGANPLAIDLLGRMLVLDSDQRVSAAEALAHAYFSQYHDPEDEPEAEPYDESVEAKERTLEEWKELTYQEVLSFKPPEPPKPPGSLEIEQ

[15] = molecular target: Diacylglycerol kinase gamma (Homo sapiens) (UniProt P49619); assay: Inhibition of recombinant human N-terminal His6-tagged DGKgamma (1 to 752 residues) expressed in baculovirus expression system at 1 uM using diacyl-glycerol as substrate incubated for 40 mins by ADP-Glo assay
[16] = molecular target: Serine/threonine-protein kinase 25 (Homo sapiens) (UniProt O00506); assay: Inhibition of human STK25 at 1 uM using casein as substrate in presence of 33P-ATP by ProQinase assay
Sequence of Serine/threonine-protein kinase 25 (Homo sapiens) (O00506 whole entry, looked up, the tested form may be a part): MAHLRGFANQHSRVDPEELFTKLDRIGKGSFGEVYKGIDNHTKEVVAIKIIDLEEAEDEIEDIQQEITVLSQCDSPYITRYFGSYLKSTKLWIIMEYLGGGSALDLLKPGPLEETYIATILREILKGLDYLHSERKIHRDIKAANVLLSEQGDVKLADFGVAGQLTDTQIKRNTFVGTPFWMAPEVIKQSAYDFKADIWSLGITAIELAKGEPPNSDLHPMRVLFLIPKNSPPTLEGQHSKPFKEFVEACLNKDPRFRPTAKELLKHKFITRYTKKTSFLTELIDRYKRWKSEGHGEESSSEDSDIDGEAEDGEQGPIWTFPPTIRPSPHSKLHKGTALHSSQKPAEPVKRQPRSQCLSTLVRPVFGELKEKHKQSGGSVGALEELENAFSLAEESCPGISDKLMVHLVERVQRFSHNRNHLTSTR

[17] = molecular target: High affinity nerve growth factor receptor (Homo sapiens) (UniProt P04629); assay: Inhibition of recombinant human N-terminal His6-tagged TrkA (441 to 760 residues) expressed in baculovirus infected Sf21 cells assessed as remaining activity at 1 uM using Poly(Glu,Tyr) as substrate incubated for 30 mins in presence of [gamma-33P]ATP by filter binding method relative to control
[18] = molecular target: Calcium/calmodulin-dependent protein kinase type II subunit alpha (Homo sapiens) (UniProt Q9UQM7); assay: Inhibition of human CAMK2A at 1 uM using RBER-CHKtide as substrate in presence of 33P-ATP by ProQinase assay
[19] = molecular target: NUAK family SNF1-like kinase 1 (Homo sapiens) (UniProt O60285); assay: Inhibition of human ARK5 at 1 uM using RBER-CHKtide as substrate in presence of 33P-ATP by ProQinase assay
[20] = molecular target: Serine/threonine-protein kinase 3 (Homo sapiens) (UniProt Q13188); assay: Inhibition of recombinant human N-terminal GST-tagged MST2 (2 to 491 residues) expressed in baculovirus infected Sf21 cells assessed as remaining activity at 1 uM using MBP as substrate incubated for 30 mins in presence of [gamma-33P]ATP by filter binding method relative to control
[21] = system: Ribosomal protein S6 kinase beta-1 (Homo sapiens), P23443 [T412E]; assay: Inhibition of recombinant human His6-tagged S6K1 T412E mutant (1 to 421 residues) expressed in baculovirus infected sf21 cells assessed as remaining activity at 1 uM using KKRNRTLTVas substrate incubated for 30 mins in presence of [gamma-33P]ATP by filter binding method relative to control
[22] = molecular target: Serine/threonine-protein kinase Nek4 (Homo sapiens) (UniProt P51957); assay: Inhibition of human NEK4 at 1 uM using MBP as substrate in presence of 33P-ATP by ProQinase assay
[23] = molecular target: Protein kinase C gamma type (Homo sapiens) (UniProt P05129); assay: Inhibition of human PKCgamma at 1 uM using 3xChocktide-PKC as substrate in presence of 33P-ATP by ProQinase assay
[24] = molecular target: Phosphatidylinositol 4-kinase type 2-beta (Homo sapiens, UniProt Q8TCG2); assay: Inhibition of human PI4K2B using PI/PS as substrate by ADP-Glo assay
Sequence of Phosphatidylinositol 4-kinase type 2-beta (Q8TCG2 whole entry): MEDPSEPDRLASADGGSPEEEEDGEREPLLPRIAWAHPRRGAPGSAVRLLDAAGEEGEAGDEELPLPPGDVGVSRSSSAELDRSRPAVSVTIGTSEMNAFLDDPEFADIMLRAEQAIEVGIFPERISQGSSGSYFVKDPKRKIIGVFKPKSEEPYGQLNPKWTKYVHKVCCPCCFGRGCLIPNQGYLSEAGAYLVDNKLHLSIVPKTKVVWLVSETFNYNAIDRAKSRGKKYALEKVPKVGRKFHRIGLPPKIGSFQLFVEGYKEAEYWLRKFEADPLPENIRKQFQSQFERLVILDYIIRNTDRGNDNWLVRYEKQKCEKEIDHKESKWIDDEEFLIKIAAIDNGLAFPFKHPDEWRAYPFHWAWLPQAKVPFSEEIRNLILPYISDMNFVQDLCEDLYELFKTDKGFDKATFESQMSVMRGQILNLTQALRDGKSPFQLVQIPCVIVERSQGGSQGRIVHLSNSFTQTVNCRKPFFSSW

Sequence of Macrophage colony-stimulating factor 1 receptor (Homo sapiens) (P07333 whole entry): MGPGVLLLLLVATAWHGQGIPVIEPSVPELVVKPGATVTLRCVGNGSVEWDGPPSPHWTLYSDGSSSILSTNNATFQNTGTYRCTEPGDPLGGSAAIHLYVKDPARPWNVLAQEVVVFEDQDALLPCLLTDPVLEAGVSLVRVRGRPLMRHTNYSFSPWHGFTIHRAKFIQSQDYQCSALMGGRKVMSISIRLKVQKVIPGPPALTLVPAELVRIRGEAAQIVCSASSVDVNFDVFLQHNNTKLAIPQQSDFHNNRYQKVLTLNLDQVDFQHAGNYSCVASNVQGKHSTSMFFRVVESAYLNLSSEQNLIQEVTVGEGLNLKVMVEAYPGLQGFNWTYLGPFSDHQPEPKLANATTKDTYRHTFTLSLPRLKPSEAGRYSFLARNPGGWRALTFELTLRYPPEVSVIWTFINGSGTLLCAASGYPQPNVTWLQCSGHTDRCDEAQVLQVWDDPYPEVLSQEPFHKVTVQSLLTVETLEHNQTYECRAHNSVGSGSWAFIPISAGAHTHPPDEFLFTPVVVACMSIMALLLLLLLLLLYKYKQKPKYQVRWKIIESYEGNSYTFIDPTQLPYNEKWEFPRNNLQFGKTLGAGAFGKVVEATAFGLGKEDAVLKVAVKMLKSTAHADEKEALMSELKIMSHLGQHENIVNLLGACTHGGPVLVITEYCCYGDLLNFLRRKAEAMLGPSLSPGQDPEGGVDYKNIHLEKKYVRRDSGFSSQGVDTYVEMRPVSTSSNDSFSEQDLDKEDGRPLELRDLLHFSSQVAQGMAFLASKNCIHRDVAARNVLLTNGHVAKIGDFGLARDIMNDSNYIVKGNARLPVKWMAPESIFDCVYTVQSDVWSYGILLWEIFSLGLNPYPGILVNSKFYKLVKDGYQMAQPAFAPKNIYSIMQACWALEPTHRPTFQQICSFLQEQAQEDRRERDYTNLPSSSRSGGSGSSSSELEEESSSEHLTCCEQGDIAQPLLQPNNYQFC

With `CC(C)(O)CNc1ncc(-c2ccnc(Nc3ccnc(Cl)c3)n2)c(CC2CC2)n1` the inhibition [1] was “inactive”, the inhibition [2] was “inactive” and the Activity [3] was 124%. The inhibition [4] was “inactive”, the Activity [5] was 109% and the inhibition [6] was “inactive”. For the same compound, the Activity [7] was 113%, the Activity [8] was 84% and the inhibition [9] was “inactive”. For the same compound, the Activity [10] was 97%, the inhibition [11] was “inactive” and the inhibition [12] was “inactive”. For the same compound, the inhibition [13] was “inactive”, the inhibition [14] was “inactive” and the inhibition [15] was “inactive”. For the same compound, the inhibition [16] was “inactive”, the Activity [17] was 70% and the inhibition [18] was “inactive”. For the same compound, the inhibition [19] was “inactive”, the Activity [20] was 120% and the Activity [21] was 116%. The inhibition [22] was “inactive”, the inhibition [23] was “inactive” and the IC50 [24] was greater than 10 µM.
